Measurements taken from ChEMBL document CHEMBL1151029, “Structure-activity relationships of sulfur-containing triazole antifungals” (1995).
Converted amounts (≈) assume the structure as drawn.

What was measured:
Type in all cases: functional
[1] = Mean survival days evaluated in vivo for prophylactic efficiency against murine systemic candidiasis at a dose of 10 mg/kg
[2] = Mean survival days evaluated in vivo for prophylactic efficiency against murine systemic aspergillosis at a dose of 50 mg/kg
Candida albicans = assay: In vitro antifungal activity against Candida albicans KB-8
Aspergillus fumigatus = assay: In vitro antifungal activity against Aspergillus fumigatus MTU6001
Mus musculus = assay: Mean survival days evaluated in vivo for prophylactic efficiency against murine systemic aspergillosis at a dose of 100 mg/kg

## C[C@H]([C@](O)(Cn1cncn1)c1ccc(F)cc1F)S(=O)(=O)CCCCCCCO
[1]
  Mean survival: 1 days
[2]
  Mean survival: 1.2 days
Candida albicans
  MIC: 0.39 µg/mL (≈ 0.904 µM)
Aspergillus fumigatus
  MIC: 25 µg/mL (≈ 57.9 µM)

## CCCCCS(=O)(=O)[C@H](C)[C@](O)(Cn1cncn1)c1ccc(F)cc1F
[1]
  Mean survival: 0.4 days
[2]
  Mean survival: 3.6 days
Candida albicans
  MIC: 0.2 µg/mL (≈ 0.516 µM)
Aspergillus fumigatus
  MIC: 25 µg/mL (≈ 64.5 µM)

## CCCCCCCCCCCS(=O)(=O)[C@H](C)[C@](O)(Cn1cncn1)c1ccc(F)cc1F
[1]
  Mean survival: 1.1 days
[2]
  Mean survival: 1.6 days
Candida albicans
  MIC: ≤ 0.013 µg/mL
Aspergillus fumigatus
  MIC: 3.13 µg/mL (≈ 6.64 µM)

## C[C@@H](SCCCCCCO)[C@](O)(Cn1cncn1)c1ccc(F)cc1F
[1]
  Mean survival: 2.8 days
[2]
  Mean survival: 2.8 days
Candida albicans
  MIC: ≤ 0.013 µg/mL
Aspergillus fumigatus
  MIC: 0.78 µg/mL (≈ 2.02 µM)

## CCCS(=O)(=O)[C@H](C)[C@](O)(Cn1cncn1)c1ccc(F)cc1F
[1]
  Mean survival: 8.3 days
[2]
  Mean survival: 10 days
Candida albicans
  MIC: 0.2 µg/mL (≈ 0.556 µM)
Aspergillus fumigatus
  MIC: 6.25 µg/mL (≈ 17.4 µM)

## CCCCCCS[C@H](C)[C@](O)(Cn1cncn1)c1ccc(F)cc1F
[1]
  Mean survival: 9.2 days
[2]
  Mean survival: 6.8 days
Candida albicans
  MIC: ≤ 0.013 µg/mL
Aspergillus fumigatus
  MIC: 0.39 µg/mL (≈ 1.06 µM)

## CCCCCCCS(=O)(=O)[C@H](C)[C@](O)(Cn1cncn1)c1ccc(F)cc1F
[1]
  Mean survival: 0.9 days
[2]
  Mean survival: 1.1 days
Candida albicans
  MIC: ≤ 0.013 µg/mL
Aspergillus fumigatus
  MIC: 6.25 µg/mL (≈ 15 µM)

## CCCCCS[C@H](C)[C@](O)(Cn1cncn1)c1ccc(F)cc1F
[1]
  Mean survival: 9.9 days
[2]
  Mean survival: 2.5 days
Candida albicans
  MIC: ≤ 0.013 µg/mL
Aspergillus fumigatus
  MIC: 0.78 µg/mL (≈ 2.19 µM)

## CCCCCCCCCCS(=O)(=O)[C@H](C)[C@](O)(Cn1cncn1)c1ccc(F)cc1F
[1]
  Mean survival: 3.9 days
[2]
  Mean survival: 1.5 days
Candida albicans
  MIC: ≤ 0.013 µg/mL
Aspergillus fumigatus
  MIC: < 0.2 µg/mL

## CCCCCCCCS(=O)(=O)[C@H](C)[C@](O)(Cn1cncn1)c1ccc(F)cc1F
[1]
  Mean survival: 1.3 days
[2]
  Mean survival: 1.6 days
Candida albicans
  MIC: ≤ 0.013 µg/mL
Aspergillus fumigatus
  MIC: 3.13 µg/mL (≈ 7.29 µM)

## CCCCS(=O)(=O)[C@H](C)[C@](O)(Cn1cncn1)c1ccc(F)cc1F
[1]
  Mean survival: 7.6 days
[2]
  Mean survival: 4.1 days
Candida albicans
  MIC: 0.2 µg/mL (≈ 0.536 µM)
Aspergillus fumigatus
  MIC: 12.5 µg/mL (≈ 33.5 µM)

## C[C@H]([C@](O)(Cn1cncn1)c1ccc(F)cc1F)S(=O)(=O)CCCCCCO
[1]
  Mean survival: 1.4 days
[2]
  Mean survival: 3.1 days
Candida albicans
  MIC: 0.39 µg/mL (≈ 0.934 µM)
Aspergillus fumigatus
  MIC: 100 µg/mL (≈ 240 µM)

## C[C@H]([C@](O)(Cn1cncn1)c1ccc(F)cc1F)S(=O)(=O)CCCCCCCCO
[1]
  Mean survival: 0.5 days
[2]
  Mean survival: 3 days
Candida albicans
  MIC: 0.1 µg/mL (≈ 0.224 µM)
Aspergillus fumigatus
  MIC: 6.25 µg/mL (≈ 14 µM)

## CCCCCCCCCS(=O)(=O)[C@H](C)[C@](O)(Cn1cncn1)c1ccc(F)cc1F
[1]
  Mean survival: 0.6 days
[2]
  Mean survival: 1 days
Candida albicans
  MIC: ≤ 0.013 µg/mL
Aspergillus fumigatus
  MIC: 0.78 µg/mL (≈ 1.76 µM)

## C[C@@H](SCCCCCCCCO)[C@](O)(Cn1cncn1)c1ccc(F)cc1F
[1]
  Mean survival: 4.3 days
[2]
  Mean survival: 3.5 days
Candida albicans
  MIC: ≤ 0.013 µg/mL
Aspergillus fumigatus
  MIC: ≤ 0.2 µg/mL

## CCCCCCCCCCCS[C@H](C)[C@](O)(Cn1cncn1)c1ccc(F)cc1F
[1]
  Mean survival: 5.8 days
[2]
  Mean survival: 1.6 days
Candida albicans
  MIC: ≤ 0.013 µg/mL
Aspergillus fumigatus
  MIC: 25 µg/mL (≈ 56.9 µM)

## CCCCCCCCS[C@H](C)[C@](O)(Cn1cncn1)c1ccc(F)cc1F
[1]
  Mean survival: 8.6 days
[2]
  Mean survival: 7.2 days
Candida albicans
  MIC: ≤ 0.013 µg/mL
Aspergillus fumigatus
  MIC: 0.39 µg/mL (≈ 0.981 µM)

## C[C@@H](SCCCCCCCO)[C@](O)(Cn1cncn1)c1ccc(F)cc1F
[1]
  Mean survival: 10 days
[2]
  Mean survival: 9.7 days
Candida albicans
  MIC: ≤ 0.013 µg/mL
Aspergillus fumigatus
  MIC: 0.78 µg/mL (≈ 1.95 µM)

## CCCCCCCS[C@H](C)[C@](O)(Cn1cncn1)c1ccc(F)cc1F
[1]
  Mean survival: 10 days
[2]
  Mean survival: 2.2 days
Candida albicans
  MIC: ≤ 0.013 µg/mL
Aspergillus fumigatus
  MIC: ≤ 0.2 µg/mL

## CCCCS[C@H](C)[C@](O)(Cn1cncn1)c1ccc(F)cc1F
[1]
  Mean survival: 9.9 days
[2]
  Mean survival: 2.5 days
Candida albicans
  MIC: ≤ 0.013 µg/mL
Aspergillus fumigatus
  MIC: 0.78 µg/mL (≈ 2.28 µM)

## CCCCCCCCCS[C@H](C)[C@](O)(Cn1cncn1)c1ccc(F)cc1F
[1]
  Mean survival: 5 days
[2]
  Mean survival: 1.8 days
Candida albicans
  MIC: ≤ 0.013 µg/mL
Aspergillus fumigatus
  MIC: 3.13 µg/mL (≈ 7.61 µM)

## OC(Cn1cncn1)(Cn1cncn1)c1ccc(F)cc1F [FLUCONAZOLE]
[1]
  Mean survival: 10 days
Candida albicans
  MIC: 0.78 µg/mL (≈ 2.55 µM)
Mus musculus
  Mean survival: 2.8 days
Aspergillus fumigatus
  MIC: 400 µg/mL (≈ 1310 µM)

## CCCS[C@H](C)[C@](O)(Cn1cncn1)c1ccc(F)cc1F
[1]
  Mean survival: 4.4 days
[2]
  Mean survival: 1 days
Candida albicans
  MIC: 0.1 µg/mL (≈ 0.305 µM)
Aspergillus fumigatus
  MIC: 12.5 µg/mL (≈ 38.2 µM)

## CCCCCCCCCCS[C@H](C)[C@](O)(Cn1cncn1)c1ccc(F)cc1F
[1]
  Mean survival: 9.1 days
[2]
  Mean survival: 8 days
Candida albicans
  MIC: ≤ 0.013 µg/mL
Aspergillus fumigatus
  MIC: 0.78 µg/mL (≈ 1.83 µM)

## CCCCCCS(=O)(=O)[C@H](C)[C@](O)(Cn1cncn1)c1ccc(F)cc1F
[1]
  Mean survival: 2.6 days
[2]
  Mean survival: 1.6 days
Candida albicans
  MIC: 0.1 µg/mL (≈ 0.249 µM)
Aspergillus fumigatus
  MIC: 12.5 µg/mL (≈ 31.1 µM)

## C[C@@H](SCCCCCO)[C@](O)(Cn1cncn1)c1ccc(F)cc1F
[1]
  Mean survival: 9.8 days
[2]
  Mean survival: 10 days
Candida albicans
  MIC: 0.025 µg/mL (≈ 0.0673 µM)
Aspergillus fumigatus
  MIC: 0.78 µg/mL (≈ 2.1 µM)

## C[C@H]([C@](O)(Cn1cncn1)c1ccc(F)cc1F)S(C)(=O)=O [GENACONAZOLE]
[1]
  Mean survival: 10 days
[2]
  Mean survival: 10 days
Candida albicans
  MIC: 0.2 µg/mL (≈ 0.604 µM)
Aspergillus fumigatus
  MIC: 12.5 µg/mL (≈ 37.7 µM)

## C[C@@H](SCCCCO)[C@](O)(Cn1cncn1)c1ccc(F)cc1F
[1]
  Mean survival: 2.5 days
[2]
  Mean survival: 3.2 days
Candida albicans
  MIC: 0.2 µg/mL (≈ 0.56 µM)
Aspergillus fumigatus
  MIC: 6.25 µg/mL (≈ 17.5 µM)

## CCS[C@H](C)[C@](O)(Cn1cncn1)c1ccc(F)cc1F
[1]
  Mean survival: 10 days
[2]
  Mean survival: 9.8 days
Candida albicans
  MIC: 0.025 µg/mL (≈ 0.0798 µM)
Aspergillus fumigatus
  MIC: 1.56 µg/mL (≈ 4.98 µM)
